In patent publication US20260027078A1, “Cyclopropane Fatty Acid Modulators Of Peroxisome Proliferator-Activated Receptors” (The Regents of the University of California, priority 2022, published 2026):

Tested on: Angptl4 mRNA expression in 3T3-L1 cells
Assay: Angptl4 mRNA expression (RT-qPCR) in 3T3-L1 cells
Format: cell-based, murine
Conditions: antagonist 0, 0.1, 1 and 10 μM, against GW7647, GW501516 or rosiglitazone respectively
Procedure: To study the effect of CpFAs on the regulation of Angptl4 expression, Angptl4 mRNA expression levels were quantified by real-time qPCR in cultured murine 3T3-L1 cells. […] FIG. 7A-C show a dose-dependent response to representative CpFAs in murine 3T3-L1 cells.
3T3-L1 cell culture and PPAR activation: 3T3-LI preadipocytes were cultured in growth medium (high glucose Dulbecco's Modified Eagle Medium (DMEM) containing 10% calf serum (CS), 1× Pencillin/Streptomycin, and 1× Glutamax) and seeded in multi-well (12-or 24-well) plates. PPAR specificity of gene target activation was determined in 3T3-L1 preadipocytes using well-described agonists and antagonists for PPAR-α, PPAR-δ, or PPAR-γ. On the day of treatment, preadipocytes were serum starved in 0.25% CS in growth medium for 2-4 hours. Cells were pretreated with increasing concentrations (0, 0.1, 1 and 10 μM) of PPAR antagonists (GW6471 for PPAR-α, GSK3787 for PPARδ, and T0070907 for PPARγ) in serum starve medium. After 1 hour, selective PPAR agonists were added (GW7647 (PPAR-α), GW501516 (PPAR-δ), and rosiglitazone (PPAR-γ)) and incubated for 24 hours. Lysates were collected for RNA extraction. […] CpFA treatments (final concentrations of 37.5, 75, and 150 μM) were prepared in 0.25% serum starve media plus 3% BSA, followed by heating (55° C.) and sonicating for 30 minutes. Treatments were allowed to cool to 37° C. and then added to 3T3-L1 preadipocytes and incubated for 24 hours. Lysates for RNA isolation were collected.
Angptl4 expression analyses: RNA was isolated from cell lysates using Qiagen 96 Total RNA kit. cDNA was synthesized and plated in triplicates in 384-well plates. RT-qPCR was performed using TaqMan Fast-Advanced master mix and TaqMan reagents and primers (18S, rplp0, angplt4) and analyzed using a Thermo Fisher Scientific QuantStudio 6 Flex PCR system. Relative gene expression was analyzed using the fold difference algorithm (2∧(−ΔΔCt)) using the geomean of 2 housekeeping genes (18S, RPLPO) compared to relevant vehicle control.

O=C(NCCS(=O)(=O)c1ccc(C(F)(F)F)cn1)c1ccc(Cl)cc1 [GSK3787]
reversal of synthetic PPAR agonist activity on Angptl4 mRNA expression: concentration-dependent ability

CCC(=O)NC[C@H](Cc1ccc(OCCc2nc(-c3ccccc3)oc2C)cc1)N/C(C)=C\C(=O)c1ccc(C(F)(F)F)cc1 [GW6471]
reversal of synthetic PPAR agonist activity on Angptl4 mRNA expression: concentration-dependent ability

O=C(Nc1ccncc1)c1cc([N+](=O)[O-])ccc1Cl [T0070907]
reversal of synthetic PPAR agonist activity on Angptl4 mRNA expression: concentration-dependent ability
